Where two headings read alike, the source gives them in different places.
Columns and labels:
Assay type in all cases: cell-based, human
[1] = tested on: representative colon, lung and breast cancer cell lines; test: Anticancer activity against colon, lung and breast cancer cell lines (summary over the panel); conditions: for anticancer activity (in words): colon, lung (MDR) and breast cancer cell lines
Description: Arimetamycins A-C (1-3) were evaluated for anticancer activity against representative colon, lung and breast cancer cell lines as described below. The lung cancer line (H69AR) is multidrug resistant (MDR), showing high-level resistance to anthracyclines (50-fold) as well as many other anticancer agents including vincristine, etoposide and mitoxantrone. […] P-glycoprotein expression-dependent MDR is the most clinically significant resistance mechanism affecting the utility of anthracyclines. Compounds of the genus described herein are the first anthracyclines from Streptomyces culture that appear effective against MDR cancers.
(§1) Antiproliferative assay: The cytotoxicities of arimetamycins A (1), B (2) and C (3) were evaluated using four human cancer cell lines: HCT-116 colon carcinoma (ATCC; CCL-247) [M. G. Brattain, W. D. Fine, F. M. Khaled, J. Thompson, D. E. Brattain, Cancer Res 1981, 41, 1751-1756], WiDr colorectal adenocarcinoma (ATCC; CCL-218) [P. Noguchi, R. Wallace, J. Johnson, E. M. Earley, S. O'Brien, S. Ferrone, M. A. Pellegrino, J. Milstien, C. Needy, W. Browne, J. Petricciani, In vitro 1979, 15, 401-408], MDR-MB-231 breast adenocarcinoma (ATCC; HTB-26) [B. R. Brinkley, P. T. Beall, L. J. Wible, M. L. Mace, D. S. Turner, R. M. Cailleau, Cancer Res 1980, 40, 3118-3129] and H69AR multidrug resistant lung carcinoma (ATCC; CRL-11351) [S. E. Mirski, J. H. Gerlach, S. P. Cole, Cancer Res 1987, 47, 2594-2598] cell lines. HCT-116 and H69AR cells were grown in McCoy's 5A Modified Medium (Gibco) supplemented with 10% (v/v) FBS and RPMI-1640 (ATCC) supplemented with 20% (v/v) FBS, respectively. WiDr and MDA-MB-231 cells were grown in DMEM Medium (Gibco) supplemented with 10% (v/v) FBS. All the cell lines were incubated at 37° C. with 5% CO2. Cells in log phase growth were harvested by trypsinization. Cells were seeded into 96-well plates (HCT-116: 1,000 cells/well, WiDr: 3,000 cells/well, MDA-MB-231: 8,000 cells/well, H69AR: 25,000 cells/well) and incubated overnight at 37° C. with 5% CO2. Compounds 1-3 (in DMSO) were sequentially diluted (3-fold starting at 50 μg/mL) across a 96-well plate and 100 μL was transferred to the appropriate wells in the assay plates. Doxorubicin (Sigma-Aldrich) and daunorubicin (Sigma-Aldrich) were used as positive controls and DMSO was used as a negative control. The plates were incubated at 37° C. for 3-6 days depending on the growth rate and then evaluated for viability using either an MTT (3-(4,5-Dimethylthiazol-2-yl)-2,5-diphenyltetrazolium bromide) (MDR-MB-231 and H69AR) or crystal violet (HCT-116 and WiDr) based colorimetric assay [R. Supino, Methods in molecular biology 1995, 43, 137-149; bD. Zivadinovic, B. Gametchu, C. S. Watson, Breast Cancer Res 2005, 7, R101-112]. Cell viability is recorded based on the percent stain present in each well relative to no drug DMSO control wells. Assays were run in triplicate.

HCT-116 colon carcinoma = test: cells; conditions: HCT116 colon cancer cells, 3-6 days, crystal violet, triplicate
Description: Compounds were tested in HTC 116 cell line, which is an art-recognized isogenic human disease model predictive of activity in human patients. They were tested according to the following standard protocol:
as §1

[2] = tested on: WiDr colorectal adenocarcinoma; test: cells; conditions: WiDr colon cancer cells, 3-6 days, crystal violet, triplicate
Description: as §1

[3] = tested on: MDA-MB-231 breast adenocarcinoma; test: cells; conditions: breast cancer cells, 3-6 days, MTT, triplicate, read-out: IC50 MDSMB231 Breast
Description: as §1

[4] = tested on: H69AR multidrug resistant lung carcinoma; test: cells; conditions: multidrug resistant lung cancer cells, 3-6 days, MTT, triplicate, read-out: IC50 H69AR Lung/MDR
Description: as §1

IC50 (HCT-116 colon carcinoma; Homo sapiens, HCT-116) [nM] | IC50 ([2]; Homo sapiens) [nM] | IC50 ([3]; Homo sapiens, MDA-MB-231) [nM] | IC50 ([4]; Homo sapiens, H69AR) [nM] | SMILES | anticancer activity (in words) [1] | IC50 (HCT-116 colon carcinoma) [nM] | IC50 [2] [nM] | IC50 [3] [nM] | IC50 [4] [nM] | IC50 against all cell lines (in words) ([1]; all cell lines including the H69AR MDR cell line) | IC50 fold lower than doxorubicin or daunorubicin ([1]; compared with either doxorubicin or daunorubicin)
– | – | – | – | COc1cc(O)c2c(c1)C(=O)c1cc3c(c(O)c1C2=O)[C@@H](O[C@H]1C[C@H](O)[C@@H](O)[C@H](C)O1)[C@H](OC)[C@](C)(O)C3=O [Arimetamycin B(2), arimetamycin B] | moderate activity | 1800 | 7500 | 29600 | 47100 | – | –
– | – | – | – | COc1cc(O)c2c(c1)C(=O)c1cc3c(c(O)c1C2=O)[C@@H](O[C@H]1C[C@H](OC)[C@@H](O)[C@H](C)O1)[C@H](OC)[C@](C)(O)C3=O [Arimetamycin C(3), arimetamycin C] | moderate activity | 1400 | 5200 | 27700 | 18800 | – | –
22.5 | 30.9 | 970 | 18400 | COc1cccc2c1C(=O)c1c(O)c3c(c(O)c1C2=O)C[C@@](O)(C(=O)CO)C[C@@H]3O[C@H]1C[C@H](N)[C@H](O)[C@H](C)O1 [Doxorubicin, doxorubicin, reference compound] | – | – | – | – | – | – | –
– | – | – | – | COc1cccc2c1C(=O)c1c(O)c3c(c(O)c1C2=O)C[C@@](O)(C(C)=O)C[C@@H]3O[C@H]1C[C@H](N)[C@H](O)[C@H](C)O1 [Daunorubicin, daunorubicin, reference compound] | – | 6.8 | 5.5 | 330 | 4800 | – | –
– | – | – | – | COc1cc(O)c2c(c1)C(=O)c1cc3c(c(O)c1C2=O)[C@@H](O[C@H]1C[C@](C)(N(C)C)[C@H](O[C@H]2C[C@](C)(O)[C@H](N(C)C)[C@H](C)O2)[C@H](C)O1)[C@H](OC)[C@](C)(O)C3=O [Arimetamycin A(1), arimetamycin A] | highly active against both MDR and drug sensitive cell lines | 2.5 | 0.5 | 164 | 67 | nanomolar | 2-10 fold
